Values of other authors, collected in patent US11998562B2 (priority 2021, dated 2024).
“Also recorded” adds a separate entry of the source.

Key:
[1] = oral delivery
[2] = system: SARS-CoV; conditions: HAE cells; read-out: IC50, inhibition of SARS-CoV replication

Q: For `CCC(CC)COC(=O)[C@H](C)N[P@](=O)(OC[C@H]1O[C@@](C#N)(c2ccc3c(N)ncnn23)[C@H](O)[C@@H]1O)Oc1ccccc1` [Remdesivir, 2-Ethylbutyl (2S)-2-{[(S)-{[(2R,3S,4R,5R)-5-(4-aminopyrrolo[2,1-f][1,2,4]triazin-7-yl)-5-cyano-3,4-dihydroxytetrahydrofuran-2-yl]methoxy}(phenoxy)phosphoryl]amino}propanoate], which first-pass clearance [1] is on record?
A: complete

Q: And the solubility in water?
A: practically insoluble; also recorded: poorly water soluble

Q: What about the IC50 [2] of the same molecule?
A: 69 nM
